ChEMBL document CHEMBL4507283, “Data for DCP probe BI-1935” (2021)
pKi: −log10 of the molar value.

Assays:
[1] = target: Serine/threonine-protein kinase OSR1 (Homo sapiens) (UniProt O95747); settings: Compound concentration 1000.0 nM
[2] = target: Serine/threonine-protein kinase haspin (Homo sapiens) (UniProt Q8TF76); settings: Compound concentration 1000.0 nM
[3] = target: Platelet-derived growth factor receptor beta (Homo sapiens) (UniProt P09619); settings: Compound concentration 1000.0 nM
[4] = system: Tyrosine-protein kinase ABL1 (Homo sapiens), P00519 [H396P]; settings: Compound concentration 1000.0 nM
[5] = target: Ephrin type-A receptor 7 (Homo sapiens) (UniProt Q15375); settings: Compound concentration 1000.0 nM
[6] = target: Ribosomal protein S6 kinase alpha-2 (Homo sapiens) (UniProt Q15349); settings: Compound concentration 1000.0 nM
[7] = system: Receptor-type tyrosine-protein kinase FLT3 (Homo sapiens), P36888 [D835H]; settings: Compound concentration 1000.0 nM
[8] = target: Homeodomain-interacting protein kinase 2 (Homo sapiens) (UniProt Q9H2X6); settings: Compound concentration 1000.0 nM
[9] = target: Cyclin-dependent kinase 11B (Homo sapiens) (UniProt P21127); settings: Compound concentration 1000.0 nM
[10] = target: Dual specificity protein kinase CLK3 (Homo sapiens) (UniProt P49761); settings: Compound concentration 1000.0 nM
[11] = target: Serine/threonine-protein kinase Nek9 (Homo sapiens) (UniProt Q8TD19); settings: Compound concentration 1000.0 nM
[12] = target: Muscle, skeletal receptor tyrosine-protein kinase (Homo sapiens) (UniProt O15146); settings: Compound concentration 1000.0 nM
[13] = target: Serine/threonine-protein kinase Chk2 (Homo sapiens) (UniProt O96017); settings: Compound concentration 1000.0 nM
[14] = target: Voltage-dependent L-type calcium channel subunit alpha-1C (diltiazem site) (Rattus norvegicus, UniProt P22002); experiment: CA+/DILSI/RA Eurofins-Panlabs selectivity data (BI); settings: compound concentration 10 uM, read-out: % Ctrl
[15] = target: Calcium/calmodulin-dependent protein kinase type II subunit alpha (Homo sapiens) (UniProt Q9UQM7); settings: Compound concentration 1000.0 nM
[16] = system: Epidermal growth factor receptor (Homo sapiens), P00533 [L861Q]; settings: Compound concentration 1000.0 nM
[17] = target: Serine/threonine-protein kinase Nek5 (Homo sapiens) (UniProt Q6P3R8); settings: Compound concentration 1000.0 nM
[18] = target: Ribosomal protein S6 kinase alpha-2 (Homo sapiens) (UniProt Q15349); settings: Compound concentration 1000.0 nM; remark: listed apart in the source
[19] = target: Phosphatidylinositol 5-phosphate 4-kinase type-2 beta (Homo sapiens) (UniProt P78356); settings: Compound concentration 1000.0 nM
[20] = target: Serine/threonine-protein kinase Nek7 (Homo sapiens) (UniProt Q8TDX7); settings: Compound concentration 1000.0 nM
[21] = target: Mitogen-activated protein kinase kinase kinase 9 (Homo sapiens) (UniProt P80192); settings: Compound concentration 1000.0 nM
[22] = system: Tyrosine-protein kinase ABL1 (Homo sapiens), P00519 [T315I]; settings: Compound concentration 1000.0 nM
[23] = target: Discoidin domain-containing receptor 2 (Homo sapiens) (UniProt Q16832); settings: Compound concentration 1000.0 nM
[24] = system: ALK tyrosine kinase receptor (Homo sapiens), Q9UM73 [C1156Y]; settings: Compound concentration 1000.0 nM
[25] = target: Casein kinase I isoform gamma-1 (Homo sapiens) (UniProt Q9HCP0); settings: Compound concentration 1000.0 nM
[26] = system: Epidermal growth factor receptor (Homo sapiens), P00533 [G719S]; settings: Compound concentration 1000.0 nM
[27] = target: Calpain-1 catalytic subunit (Homo sapiens) (UniProt P07384); experiment: MU-CALPAIN Eurofins-Panlabs selectivity data (BI); settings: Compound concentration 10.0 uM
[28] = target: Adrenergic receptor alpha-1 (Rattus norvegicus) (UniProt P15823+P23944+P43140); experiment: ALPHA1/R Eurofins-Panlabs selectivity data (BI); format: protein assay; settings: Compound concentration 10.0 uM
[29] = target: Protein kinase C theta type (Homo sapiens) (UniProt Q04759); settings: Compound concentration 1000.0 nM
[30] = target: 5'-AMP-activated protein kinase catalytic subunit alpha-1 (Homo sapiens) (UniProt Q13131); settings: Compound concentration 1000.0 nM
[31] = target: Sodium-dependent dopamine transporter (Homo sapiens, UniProt Q01959); experiment: GPCRScan assay: inhibition of DAT; design: radioligand conc. used [nm] 3.6 – 16.0, parental cells stable HEK
[32] = target: Casein kinase I isoform gamma-3 (Homo sapiens) (UniProt Q9Y6M4); settings: Compound concentration 1000.0 nM
[33] = target: Serine/threonine-protein kinase ICK (Homo sapiens) (UniProt Q9UPZ9); settings: Compound concentration 1000.0 nM
[34] = system: Tyrosine-protein kinase ABL1 (Homo sapiens), P00519 [M351T]; settings: Compound concentration 1000.0 nM
[35] = target: Ankyrin repeat and protein kinase domain-containing protein 1 (Homo sapiens) (UniProt Q8NFD2); settings: Compound concentration 1000.0 nM
[36] = target: MAP/microtubule affinity-regulating kinase 4 (Homo sapiens) (UniProt Q96L34); settings: Compound concentration 1000.0 nM
[37] = target: Ephrin type-B receptor 6 (Homo sapiens) (UniProt O15197); settings: Compound concentration 1000.0 nM
[38] = target: Bone morphogenetic protein receptor type-2 (Homo sapiens) (UniProt Q13873); settings: Compound concentration 1000.0 nM
[39] = target: STE20/SPS1-related proline-alanine-rich protein kinase (Homo sapiens) (UniProt Q9UEW8); settings: Compound concentration 1000.0 nM
[40] = target: Beta-2 adrenergic receptor (Homo sapiens) (UniProt P07550); settings: Compound concentration 10.0 uM
[41] = target: Mitogen-activated protein kinase kinase kinase 10 (Homo sapiens) (UniProt Q02779); settings: Compound concentration 1000.0 nM
[42] = target: TGF-beta receptor type-1 (Homo sapiens) (UniProt P36897); settings: Compound concentration 1000.0 nM
[43] = target: Delta-type opioid receptor (Homo sapiens) (UniProt P41143); settings: Compound concentration 10.0 uM
[44] = target: Myosin light chain kinase family member 4 (Homo sapiens) (UniProt Q86YV6); settings: Compound concentration 1000.0 nM

Sodium-dependent dopamine transporter, sequence (Q01959 whole entry, canonical isoform): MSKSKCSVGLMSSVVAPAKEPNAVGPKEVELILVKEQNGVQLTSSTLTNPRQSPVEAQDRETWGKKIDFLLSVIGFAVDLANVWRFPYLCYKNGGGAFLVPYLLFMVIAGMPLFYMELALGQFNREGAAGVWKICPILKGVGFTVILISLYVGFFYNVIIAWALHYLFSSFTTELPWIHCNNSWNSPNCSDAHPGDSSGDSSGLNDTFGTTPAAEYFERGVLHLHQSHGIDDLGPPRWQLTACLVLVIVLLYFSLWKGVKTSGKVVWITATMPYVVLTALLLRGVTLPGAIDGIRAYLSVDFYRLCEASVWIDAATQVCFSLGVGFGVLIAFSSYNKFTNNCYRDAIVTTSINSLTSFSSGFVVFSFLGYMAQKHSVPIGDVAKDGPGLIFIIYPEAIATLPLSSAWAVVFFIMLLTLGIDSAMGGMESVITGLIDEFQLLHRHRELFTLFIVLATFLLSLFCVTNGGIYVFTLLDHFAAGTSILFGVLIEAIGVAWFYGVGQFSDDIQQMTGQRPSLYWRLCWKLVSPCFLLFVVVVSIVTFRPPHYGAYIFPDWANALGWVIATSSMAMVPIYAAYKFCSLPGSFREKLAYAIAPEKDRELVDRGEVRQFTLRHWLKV
Ribosomal protein S6 kinase alpha-2 (Homo sapiens), sequence (Q15349 whole entry): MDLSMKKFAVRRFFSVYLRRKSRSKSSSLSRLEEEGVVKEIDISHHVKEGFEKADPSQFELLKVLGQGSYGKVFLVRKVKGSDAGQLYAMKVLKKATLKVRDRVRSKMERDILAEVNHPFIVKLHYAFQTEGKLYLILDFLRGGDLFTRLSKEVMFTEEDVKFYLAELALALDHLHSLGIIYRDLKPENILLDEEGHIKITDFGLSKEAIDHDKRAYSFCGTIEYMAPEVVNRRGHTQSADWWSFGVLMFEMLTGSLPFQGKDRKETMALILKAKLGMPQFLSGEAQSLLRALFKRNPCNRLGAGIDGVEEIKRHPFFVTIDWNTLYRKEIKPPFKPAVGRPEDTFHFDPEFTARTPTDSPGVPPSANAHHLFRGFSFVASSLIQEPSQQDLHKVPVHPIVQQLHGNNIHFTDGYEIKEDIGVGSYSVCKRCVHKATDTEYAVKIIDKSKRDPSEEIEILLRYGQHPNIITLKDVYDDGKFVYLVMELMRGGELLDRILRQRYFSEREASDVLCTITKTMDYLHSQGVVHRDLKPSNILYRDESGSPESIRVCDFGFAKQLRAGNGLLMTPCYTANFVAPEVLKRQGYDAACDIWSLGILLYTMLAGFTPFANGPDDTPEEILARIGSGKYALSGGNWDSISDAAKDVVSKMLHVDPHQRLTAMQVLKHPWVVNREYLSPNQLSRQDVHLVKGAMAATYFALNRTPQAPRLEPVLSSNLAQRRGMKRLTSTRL
Ephrin type-A receptor 7 (Homo sapiens), sequence (Q15375 28-998 limits assumed): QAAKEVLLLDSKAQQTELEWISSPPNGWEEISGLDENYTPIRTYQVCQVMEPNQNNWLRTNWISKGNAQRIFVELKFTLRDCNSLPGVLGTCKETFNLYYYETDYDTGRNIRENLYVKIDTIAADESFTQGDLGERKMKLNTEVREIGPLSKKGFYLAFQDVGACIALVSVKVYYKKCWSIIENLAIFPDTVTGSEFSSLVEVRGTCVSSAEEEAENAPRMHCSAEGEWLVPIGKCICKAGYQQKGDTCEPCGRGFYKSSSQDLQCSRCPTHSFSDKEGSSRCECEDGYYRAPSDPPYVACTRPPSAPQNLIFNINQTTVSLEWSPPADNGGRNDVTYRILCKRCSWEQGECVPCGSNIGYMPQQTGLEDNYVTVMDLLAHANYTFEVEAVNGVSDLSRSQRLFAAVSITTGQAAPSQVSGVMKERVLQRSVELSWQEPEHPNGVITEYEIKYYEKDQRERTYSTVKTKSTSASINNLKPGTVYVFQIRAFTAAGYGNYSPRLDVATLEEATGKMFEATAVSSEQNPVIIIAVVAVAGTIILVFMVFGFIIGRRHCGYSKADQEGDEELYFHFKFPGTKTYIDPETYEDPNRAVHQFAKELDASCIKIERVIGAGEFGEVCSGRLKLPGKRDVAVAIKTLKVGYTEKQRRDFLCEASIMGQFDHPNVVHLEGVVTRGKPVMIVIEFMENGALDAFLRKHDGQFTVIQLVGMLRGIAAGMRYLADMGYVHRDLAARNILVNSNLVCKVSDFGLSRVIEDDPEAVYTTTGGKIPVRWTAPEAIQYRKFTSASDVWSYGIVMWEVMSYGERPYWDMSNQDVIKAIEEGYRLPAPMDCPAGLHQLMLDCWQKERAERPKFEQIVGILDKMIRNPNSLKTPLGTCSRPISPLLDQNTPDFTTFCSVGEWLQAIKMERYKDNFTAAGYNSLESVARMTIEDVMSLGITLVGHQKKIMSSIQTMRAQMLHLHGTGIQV
Bone morphogenetic protein receptor type-2 (Homo sapiens), sequence (Q13873 whole entry): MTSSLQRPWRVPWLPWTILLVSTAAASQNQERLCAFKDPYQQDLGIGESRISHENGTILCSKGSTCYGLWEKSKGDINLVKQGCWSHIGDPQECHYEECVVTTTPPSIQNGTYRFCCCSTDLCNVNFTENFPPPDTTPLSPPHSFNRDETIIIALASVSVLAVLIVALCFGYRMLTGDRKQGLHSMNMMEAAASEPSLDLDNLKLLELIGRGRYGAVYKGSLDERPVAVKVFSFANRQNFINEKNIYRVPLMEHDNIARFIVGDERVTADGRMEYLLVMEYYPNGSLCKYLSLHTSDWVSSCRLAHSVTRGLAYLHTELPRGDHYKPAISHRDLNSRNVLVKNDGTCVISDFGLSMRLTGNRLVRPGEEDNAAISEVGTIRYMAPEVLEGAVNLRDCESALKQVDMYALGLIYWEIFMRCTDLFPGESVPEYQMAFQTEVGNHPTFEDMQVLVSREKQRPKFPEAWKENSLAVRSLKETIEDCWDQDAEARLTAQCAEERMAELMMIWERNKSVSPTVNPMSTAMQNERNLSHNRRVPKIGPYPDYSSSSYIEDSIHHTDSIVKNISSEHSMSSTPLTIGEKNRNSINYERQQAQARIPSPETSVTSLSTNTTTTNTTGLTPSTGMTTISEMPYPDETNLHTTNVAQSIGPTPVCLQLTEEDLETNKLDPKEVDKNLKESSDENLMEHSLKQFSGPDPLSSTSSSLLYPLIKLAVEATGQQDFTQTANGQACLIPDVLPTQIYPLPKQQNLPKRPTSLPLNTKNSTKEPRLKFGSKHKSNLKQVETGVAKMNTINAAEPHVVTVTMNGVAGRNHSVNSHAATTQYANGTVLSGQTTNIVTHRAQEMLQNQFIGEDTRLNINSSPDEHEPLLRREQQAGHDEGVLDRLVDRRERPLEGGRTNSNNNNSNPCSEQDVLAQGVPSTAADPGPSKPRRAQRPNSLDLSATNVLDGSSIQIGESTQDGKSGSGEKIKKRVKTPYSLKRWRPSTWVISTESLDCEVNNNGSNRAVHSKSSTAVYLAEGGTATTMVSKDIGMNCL
Cyclin-dependent kinase 11B (Homo sapiens), sequence (P21127 whole entry): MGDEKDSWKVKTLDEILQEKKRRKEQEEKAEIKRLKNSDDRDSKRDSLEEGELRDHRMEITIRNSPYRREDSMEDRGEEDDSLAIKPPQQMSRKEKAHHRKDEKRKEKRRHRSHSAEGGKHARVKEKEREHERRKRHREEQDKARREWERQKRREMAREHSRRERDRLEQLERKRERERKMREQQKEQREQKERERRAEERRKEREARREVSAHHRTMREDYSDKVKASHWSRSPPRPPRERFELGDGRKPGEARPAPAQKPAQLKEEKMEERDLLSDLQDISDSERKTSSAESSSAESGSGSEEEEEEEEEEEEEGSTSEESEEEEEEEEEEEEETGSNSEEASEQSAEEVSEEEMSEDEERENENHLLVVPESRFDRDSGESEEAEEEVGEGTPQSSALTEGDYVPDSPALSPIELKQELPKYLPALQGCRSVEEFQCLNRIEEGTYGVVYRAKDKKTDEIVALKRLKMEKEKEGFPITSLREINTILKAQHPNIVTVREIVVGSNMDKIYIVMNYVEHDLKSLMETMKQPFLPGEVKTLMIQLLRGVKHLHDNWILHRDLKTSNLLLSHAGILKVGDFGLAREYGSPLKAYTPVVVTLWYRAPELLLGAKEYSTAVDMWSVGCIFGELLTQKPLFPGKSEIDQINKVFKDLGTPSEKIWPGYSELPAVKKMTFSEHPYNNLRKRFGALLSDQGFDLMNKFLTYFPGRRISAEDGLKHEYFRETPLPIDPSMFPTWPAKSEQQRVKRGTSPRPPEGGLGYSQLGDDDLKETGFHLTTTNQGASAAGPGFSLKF
TGF-beta receptor type-1 (Homo sapiens), sequence (P36897 whole entry): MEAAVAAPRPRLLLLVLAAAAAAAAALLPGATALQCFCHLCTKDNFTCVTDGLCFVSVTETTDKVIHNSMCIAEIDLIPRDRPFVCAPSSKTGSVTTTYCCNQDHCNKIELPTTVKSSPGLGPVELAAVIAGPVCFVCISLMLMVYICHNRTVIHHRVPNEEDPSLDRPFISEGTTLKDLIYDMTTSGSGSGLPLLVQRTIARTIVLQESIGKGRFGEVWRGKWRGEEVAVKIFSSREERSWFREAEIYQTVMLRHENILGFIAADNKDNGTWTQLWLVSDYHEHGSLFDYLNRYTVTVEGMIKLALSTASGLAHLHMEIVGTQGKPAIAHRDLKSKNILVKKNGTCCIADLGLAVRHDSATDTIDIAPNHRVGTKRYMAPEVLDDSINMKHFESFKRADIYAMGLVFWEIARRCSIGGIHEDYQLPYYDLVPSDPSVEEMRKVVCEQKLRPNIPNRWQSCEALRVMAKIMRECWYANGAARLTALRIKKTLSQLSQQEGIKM
Beta-2 adrenergic receptor (Homo sapiens), sequence (P07550 whole entry, looked up): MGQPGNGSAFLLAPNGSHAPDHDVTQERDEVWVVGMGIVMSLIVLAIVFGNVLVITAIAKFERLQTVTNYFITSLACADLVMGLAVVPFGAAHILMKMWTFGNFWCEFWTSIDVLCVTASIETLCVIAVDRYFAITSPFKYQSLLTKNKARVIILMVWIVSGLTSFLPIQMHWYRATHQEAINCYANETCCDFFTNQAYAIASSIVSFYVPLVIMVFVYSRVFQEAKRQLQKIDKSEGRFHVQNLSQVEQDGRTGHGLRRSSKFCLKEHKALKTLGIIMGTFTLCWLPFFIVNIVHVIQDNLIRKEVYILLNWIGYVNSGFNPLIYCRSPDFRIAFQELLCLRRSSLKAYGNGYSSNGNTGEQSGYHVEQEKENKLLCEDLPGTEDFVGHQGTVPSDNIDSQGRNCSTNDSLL

**Q.** Which residual activity [1] does the source give for `CCOCCn1cc(C(=O)Nc2ccc(-n3nc(-c4cccnc4)cc3C(F)(F)F)cn2)ccc1=O` [BI 1935] here?
**A.** Its residual activity is 92%.

**Q.** What about the residual activity [2] of the same molecule?
**A.** Its residual activity is 100%.

**Q.** What about the residual activity [3] of the same molecule?
**A.** Its residual activity is 88%.

**Q.** And the residual activity [4]?
**A.** The residual activity was 94%.

**Q.** What about the residual activity [5] of the same molecule?
**A.** The residual activity was 98%.

**Q.** What about the residual activity [6] of the same molecule?
**A.** Its residual activity is 84%.

**Q.** And the residual activity [7]?
**A.** Its residual activity is 87%.

**Q.** What about the residual activity [8] of the same molecule?
**A.** Its residual activity is 100%.

**Q.** And the residual activity [9]?
**A.** Its residual activity is 100%.

**Q.** And the residual activity [10]?
**A.** Its residual activity is 100%.

**Q.** What about the residual activity [11] of the same molecule?
**A.** The residual activity was 100%.

**Q.** And the residual activity [12]?
**A.** The residual activity was 99%.

**Q.** And the residual activity [13]?
**A.** Its residual activity is 0%.

**Q.** What about the activity at 10 µM [14] of the same molecule?
**A.** Its activity at 10 µM is 95% (not active).

**Q.** What about the residual activity [15] of the same molecule?
**A.** The residual activity was 93%.

**Q.** And the residual activity [16]?
**A.** Its residual activity is 100%.

**Q.** And the residual activity [17]?
**A.** The residual activity was 100%.

**Q.** And the residual activity [18]?
**A.** Its residual activity is 89%.

**Q.** And the residual activity [19]?
**A.** Its residual activity is 68%.

**Q.** What about the residual activity [20] of the same molecule?
**A.** Its residual activity is 100%.

**Q.** What about the residual activity [21] of the same molecule?
**A.** Its residual activity is 93%.

**Q.** And the residual activity [22]?
**A.** The residual activity was 96%.

**Q.** And the residual activity [23]?
**A.** Its residual activity is 100%.

**Q.** What about the residual activity [24] of the same molecule?
**A.** Its residual activity is 100%.

**Q.** What about the residual activity [25] of the same molecule?
**A.** Its residual activity is 100%.

**Q.** What about the residual activity [26] of the same molecule?
**A.** The residual activity was 100%.

**Q.** And the residual activity [27]?
**A.** The residual activity was 96%.

**Q.** And the residual activity [28]?
**A.** The residual activity was 94%.

**Q.** And the residual activity [29]?
**A.** The residual activity was 73%.

**Q.** And the residual activity [30]?
**A.** Its residual activity is 100%.

**Q.** What about the pKi ([31]; read-out: Ki) of the same molecule?
**A.** The pKi was 5.35.

**Q.** What about the Ki ([31]; read-out: pKi (converted)) of the same molecule?
**A.** Its Ki is 5.01 µM.

**Q.** What about the residual activity [32] of the same molecule?
**A.** Its residual activity is 100%.

**Q.** What about the residual activity [33] of the same molecule?
**A.** The residual activity was 99%.

**Q.** And the residual activity [34]?
**A.** Its residual activity is 100%.

**Q.** And the residual activity [35]?
**A.** The residual activity was 57%.

**Q.** And the residual activity [36]?
**A.** The residual activity was 100%.

**Q.** What about the residual activity [37] of the same molecule?
**A.** Its residual activity is 94%.

**Q.** What about the residual activity [38] of the same molecule?
**A.** The residual activity was 100%.

**Q.** And the residual activity [39]?
**A.** Its residual activity is 100%.

**Q.** What about the inhibition [40] of the same molecule?
**A.** The inhibition was -1.17%.

**Q.** And the residual activity [41]?
**A.** The residual activity was 100%.

**Q.** What about the residual activity [42] of the same molecule?
**A.** The residual activity was 100%.

**Q.** And the inhibition [43]?
**A.** The inhibition was -6.39%.

**Q.** And the residual activity [44]?
**A.** The residual activity was 100%.
